Source: ChEMBL document CHEMBL1201862, “PubChem BioAssay data set” (2004)
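Where inhibition never reached the appropriate level, the endpoint shown equals the highest concentration tested. Otherwise, values were interpolated linearly from a five-concentration, 48-hour dose response in 96-well plates. Abbreviation: GI50, concentration required for 50% inhibition of growth.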 Active and inactive are the calls of the source. No stated cut-off is given here; in the data, active = GI50 up to about 1.1 µM and inactive = higher.

Tests used:
Experiment in all cases: growth of human tumour cells (NCI), 48 h
[1] = test system: MDA-MB-435
[2] = test system: MCF7
[3] = test system: HT-29
[4] = test system: TK-10
[5] = test system: Hs-578T
[6] = test system: MDA-N
[7] = test system: COLO 205
[8] = test system: SNB-75
[9] = test system: SNB-19
[10] = test system: DU-145
[11] = test system: BT-549
[12] = test system: LOX IMVI
[13] = test system: A498
[14] = test system: KM12
[15] = test system: SK-MEL-2
[16] = test system: HOP-62
[17] = test system: NCI-H460
[18] = test system: M14
[19] = test system: SF-295
[20] = test system: RPMI-8226

Measured: GI50

COc1cc2ccc1OCc1cccc(n1)COc1ccc(cc1OC)/C=N\CCNCCNCC/N=C\2
inactive: [1] > 100 µM | [2] 49 µM | [3] > 100 µM | [4] > 100 µM | [5] > 100 µM | [6] > 100 µM | [7] > 100 µM | [8] > 100 µM | [9] > 100 µM | [10] > 100 µM | [11] > 100 µM | [12] > 100 µM | [13] > 100 µM | [14] > 100 µM | [15] > 100 µM | [16] > 100 µM | [17] > 100 µM | [18] > 100 µM

CC(=O)O[C@H]1CC[C@@]2(C)C(=CC[C@@H]3[C@@H]2CC[C@]2(C)c4c(cc(C#N)c(=N)n4C(C)=O)C[C@@H]32)C1
inactive: [19] 11.4 µM | [1] 19.6 µM | [2] 22.3 µM | [3] 17.9 µM | [4] 25.4 µM | [5] 25.5 µM | [6] 21 µM | [7] 16.1 µM | [8] 19.1 µM | [9] 28 µM | [10] 27.1 µM | [11] 15.4 µM | [12] 16.7 µM | [13] 30.5 µM | [14] 17.9 µM | [16] 24.2 µM | [17] 16.4 µM | [18] 16.9 µM

CCOC(=O)CCNC(=O)c1cc(C)cc2c1Oc1c(cc(C)cc1C(=O)NCCC(=O)OCC)S2
inactive: [19] 53.5 µM | [1] > 100 µM | [2] 57.1 µM | [3] > 100 µM | [4] 42.3 µM | [5] 34 µM | [6] 88.3 µM | [7] > 100 µM | [8] 20.7 µM | [9] 42 µM | [10] > 100 µM | [11] 68.7 µM | [12] 95.9 µM | [13] 27.2 µM | [14] > 100 µM | [20] > 100 µM | [15] 90.8 µM | [16] 56.4 µM | [18] > 100 µM

CCC(=O)Nc1ccc(/N=C/c2cccc(Oc3ccccc3)c2)cc1
inactive: [19] > 100 µM | [1] 47.3 µM | [2] 44.1 µM | [3] 49.2 µM | [5] > 100 µM | [6] 40.1 µM | [7] 44.6 µM | [8] > 100 µM | [9] > 100 µM | [10] 46.2 µM | [11] > 100 µM | [12] 29.6 µM | [13] > 100 µM | [14] > 100 µM | [20] 21.8 µM | [15] > 100 µM | [16] 37.2 µM | [18] 46.6 µM

COc1cc(C2S/C(=C/c3ccccc3)C(=O)N2c2ccccn2)cc(OC)c1OC (stereo not given)
inactive: [19] 24.5 µM | [1] 11.5 µM | [2] 11.7 µM | [3] 11 µM | [4] 45.7 µM | [5] 20.2 µM | [6] 14.1 µM | [7] 29 µM | [8] 6.87 µM | [9] 18.1 µM | [10] 10.3 µM | [11] 13.9 µM | [12] 9.59 µM | [13] 13.2 µM | [14] 12.9 µM | [20] 7.53 µM | [15] 30 µM | [16] 18.6 µM | [18] 15.1 µM

C1=C(c2ccccc2)SC=C(c2ccccc2)S1
inactive: [19] 29.2 µM | [1] 5.48 µM | [2] 16.9 µM | [3] 24.9 µM | [4] 28.8 µM | [5] 44 µM | [6] 6.17 µM | [7] 30.1 µM | [8] 1.68 µM | [9] > 100 µM | [10] > 100 µM | [11] 17.9 µM | [12] 36.9 µM | [13] 17.9 µM | [14] 16.9 µM | [20] 33.3 µM | [16] > 100 µM | [17] 29.5 µM | [18] 39.8 µM

CCOC(=O)COc1ccc(/C=C/C(=O)c2ccc(OC)cc2)cc1
inactive: [19] 29 µM | [1] 16.8 µM | [2] 30.7 µM | [3] 21.5 µM | [4] 42 µM | [5] 25.9 µM | [6] 26.7 µM | [7] 35.4 µM | [8] 65.3 µM | [9] 41.8 µM | [10] 29.9 µM | [11] 28.5 µM | [12] 16.3 µM | [13] 29.6 µM | [14] 28.4 µM | [20] 39.3 µM | [15] 27.7 µM | [16] 20.8 µM | [18] 34.6 µM

COC(=O)C1CCC(=S)N1C(=O)OCc1ccccc1 (stereo not given)
inactive: [19] 78 µM | [1] > 100 µM | [2] 88.3 µM | [3] > 100 µM | [4] > 100 µM | [5] 49.4 µM | [6] > 100 µM | [7] > 100 µM | [8] > 100 µM | [9] > 100 µM | [10] > 100 µM | [11] > 100 µM | [13] > 100 µM | [14] > 100 µM | [20] > 100 µM | [15] > 100 µM | [16] > 100 µM | [17] 39.5 µM | [18] > 100 µM

CCOC(=O)c1cc2c(OC)cc(OC)cc2oc1=O
inactive: [19] 50 µM | [1] > 100 µM | [2] > 100 µM | [3] > 100 µM | [4] > 100 µM | [5] 45.2 µM | [6] > 100 µM | [7] > 100 µM | [8] 38.5 µM | [9] 41.8 µM | [10] > 100 µM | [11] 76 µM | [12] 5.58 µM | [13] > 100 µM | [20] > 100 µM | [15] > 100 µM | [16] 65.3 µM | [17] > 100 µM | [18] > 100 µM

CCC(C#N)N(Cc1cccc(CN(C(C)=O)C(C#N)CC)c1)C(C)=O (stereo not given)
inactive: [19] > 100 µM | [1] > 100 µM | [2] > 100 µM | [3] 7.57 µM | [4] > 100 µM | [5] > 100 µM | [6] > 100 µM | [7] > 100 µM | [8] 12 µM | [9] > 100 µM | [10] > 100 µM | [11] > 100 µM | [12] > 100 µM | [13] > 100 µM | [14] > 100 µM | [20] > 100 µM | [15] > 100 µM | [16] > 100 µM | [18] > 100 µM

O=C1NC2=NN=C(c3ccc(Br)cc3)CN2NC12c1ccccc1-c1ccccc12
inactive: [19] > 100 µM | [1] > 100 µM | [2] 73.3 µM | [3] > 100 µM | [4] > 100 µM | [5] 37 µM | [6] > 100 µM | [7] > 100 µM | [8] > 100 µM | [9] > 100 µM | [10] > 100 µM | [11] > 100 µM | [12] > 100 µM | [13] > 100 µM | [15] > 100 µM | [16] > 100 µM | [17] > 100 µM | [18] > 100 µM
